{
  "source": "ChEMBL document CHEMBL1145073",
  "about": "“DNA binding ligands targeting drug-resistant bacteria: structure, activity, and pharmacology” (J Med Chem, 2003)",
  "data": [
    {"system": "not listed separately", "assay": "In vitro antimicrobial activity against penicillin-intermediate Streptococcus pneumoniae 49619", "format": "functional", "units": {"MIC": "µg/mL"}, "values": [
      {"smiles": "Cn1cc(NC(=O)c2cc(NC(=O)c3cc(NC(=O)c4cnc5ccccc5c4)cn3C)cn2C)cc1C(=O)NCCN1CCOCC1", "MIC": 16},
      {"smiles": "Cn1cc(NC(=O)c2cc(NC(=O)c3cc(NC(=O)c4sc5cc(F)c(F)cc5c4Cl)cn3C)cn2C)cc1C(=O)NCCN1CCOCC1", "MIC": 0.5},
      {"smiles": "COc1ccc(C(=O)Nc2cc(C(=O)Nc3cc(C(=O)Nc4cc(C(=O)NCCN5CCOCC5)n(C)c4)n(C)c3)n(C)c2)cc1", "MIC": 0.125},
      {"smiles": "Cn1cc(NC(=O)c2cc(NC(=O)c3cc(NC(=O)c4cccn4C)cn3C)cn2C)cc1C(=O)NCCN1CCOCC1", "MIC": 32},
      {"smiles": "Cn1cc(NC(=O)c2cc(NC(=O)c3cc(NC(=O)c4ccc(OC(F)F)cc4)cn3C)cn2C)cc1C(=O)NCCN1CCOCC1", "MIC": 0.062},
      {"smiles": "Cn1cc(NC(=O)c2cc(NC(=O)c3cc(NC(=O)c4sc5cc(Cl)sc5c4Cl)cn3C)cn2C)cc1C(=O)NCCN1CCOCC1", "MIC": 0.125},
      {"smiles": "Cn1cc(NC(=O)c2cc(NC(=O)c3cc(NC(=O)c4cn5ccccc5n4)cn3C)cn2C)cc1C(=O)NCCN1CCOCC1", "MIC": 0.031},
      {"smiles": "Cn1cc(NC(=O)c2cc(NC(=O)c3cc(NC(=O)c4sc(-c5ccccc5)cc4Cl)cn3C)cn2C)cc1C(=O)NCCN1CCOCC1", "MIC": 2},
      {"smiles": "Cn1cc(NC(=O)c2cc(NC(=O)c3cc(NC(=O)c4ccc5cccnc5n4)cn3C)cn2C)cc1C(=O)NCCN1CCOCC1", "MIC": 2},
      {"smiles": "Cn1cc(NC(=O)c2cc(NC(=O)c3cc(NC(=O)c4cc5ccccc5n4C)cn3C)cn2C)cc1C(=O)NCCN1CCOCC1", "MIC": 8},
      {"smiles": "Cn1cc(NC(=O)c2cc(NC(=O)c3cc(NC(=O)c4cccnc4)cn3C)cn2C)cc1C(=O)NCCN1CCOCC1", "MIC": 4},
      {"smiles": "Cc1nc2ccncc2cc1C(=O)Nc1cc(C(=O)Nc2cc(C(=O)Nc3cc(C(=O)NCCN4CCOCC4)n(C)c3)n(C)c2)n(C)c1", "MIC": "> 32"},
      {"smiles": "Cn1cc(NC(=O)c2cc(NC(=O)c3cc(NC(=O)c4ccc5c(c4)OCO5)cn3C)cn2C)cc1C(=O)NCCN1CCOCC1", "MIC": 2},
      {"smiles": "Cn1cc(NC(=O)c2cc(NC(=O)c3cc(NC(=O)c4cc5ccccc5s4)cn3C)cn2C)cc1C(=O)NCCN1CCOCC1", "MIC": 1},
      {"smiles": "Cn1cc(NC(=O)c2cc(NC(=O)c3cc(NC(=O)c4cc5cccc(Cl)c5s4)cn3C)cn2C)cc1C(=O)NCCN1CCOCC1", "MIC": 2},
      {"smiles": "Cn1cc(NC(=O)c2cc(NC(=O)c3cc(NC(=O)c4cccs4)cn3C)cn2C)cc1C(=O)NCCN1CCOCC1", "MIC": 2},
      {"smiles": "Cn1cc(NC(=O)c2cc(NC(=O)c3cc(NC(=O)c4ccccn4)cn3C)cn2C)cc1C(=O)NCCN1CCOCC1", "MIC": "> 32"},
      {"smiles": "Cn1cc(NC(=O)c2cc(NC(=O)c3cc(NC(=O)c4ccoc4)cn3C)cn2C)cc1C(=O)NCCN1CCOCC1", "MIC": 8},
      {"smiles": "Cn1cc(NC(=O)c2cc(NC(=O)c3cc(NC(=O)c4ccc5ccccc5n4)cn3C)cn2C)cc1C(=O)NCCN1CCOCC1", "MIC": 1},
      {"smiles": "Cn1cc(NC(=O)c2cc(NC(=O)c3cc(NC(=O)c4ccc(OC(F)(F)F)cc4)cn3C)cn2C)cc1C(=O)NCCN1CCOCC1", "MIC": 1},
      {"smiles": "Cn1cc(NC(=O)c2cc(NC(=O)c3cc(NC(=O)c4nsc5ccccc45)cn3C)cn2C)cc1C(=O)NCCN1CCOCC1", "MIC": 0.125},
      {"smiles": "Cn1cc(NC(=O)c2cc(NC(=O)c3cc(NC(=O)c4ccc5cnccc5n4)cn3C)cn2C)cc1C(=O)NCCN1CCOCC1", "MIC": 0.25},
      {"smiles": "Cn1cc(NC(=O)c2cc(NC(=O)c3cc(NC(=O)c4csc(-c5cccnc5)n4)cn3C)cn2C)cc1C(=O)NCCN1CCOCC1", "MIC": 2},
      {"smiles": "COc1cc(Cl)ccc1C(=O)Nc1cc(C(=O)Nc2cc(C(=O)Nc3cc(C(=O)NCCN4CCOCC4)n(C)c3)n(C)c2)n(C)c1", "MIC": 0.5},
      {"smiles": "Cn1cc(NC(=O)c2cc(NC(=O)c3cc(NC(=O)c4cnc5ccccc5n4)cn3C)cn2C)cc1C(=O)NCCN1CCOCC1", "MIC": "> 32"},
      {"smiles": "Cn1cc(NC(=O)c2cc(NC(=O)c3cc(NC(=O)c4cn5cccnc5n4)cn3C)cn2C)cc1C(=O)NCCN1CCOCC1", "MIC": 0.5},
      {"smiles": "Cn1cc(NC(=O)c2cc(NC(=O)c3cc(NC(=O)c4ccccc4)cn3C)cn2C)cc1C(=O)NCCN1CCOCC1", "MIC": 16},
      {"smiles": "Cn1cc(NC(=O)c2cc(NC(=O)c3cc(NC(=O)c4cc5ccccc5oc4=O)cn3C)cn2C)cc1C(=O)NCCN1CCOCC1", "MIC": 0.5},
      {"smiles": "Cn1cc(NC(=O)c2cc(NC(=O)c3cc(NC(=O)c4sc5cc(Cl)ccc5c4Cl)cn3C)cn2C)cc1C(=O)NCCN1CCOCC1", "MIC": 0.25}
    ]},
    {"system": "Enterococcus faecalis", "assay": "In vitro antimicrobial activity against vancomycin-susceptible Enterococcus faecalis 29212", "format": "functional", "units": {"MIC": "µg/mL"}, "values": [
      {"smiles": "Cn1cc(NC(=O)c2cc(NC(=O)c3cc(NC(=O)c4cnc5ccccc5c4)cn3C)cn2C)cc1C(=O)NCCN1CCOCC1", "MIC": "> 32"},
      {"smiles": "Cn1cc(NC(=O)c2cc(NC(=O)c3cc(NC(=O)c4sc5cc(F)c(F)cc5c4Cl)cn3C)cn2C)cc1C(=O)NCCN1CCOCC1", "MIC": 8},
      {"smiles": "COc1ccc(C(=O)Nc2cc(C(=O)Nc3cc(C(=O)Nc4cc(C(=O)NCCN5CCOCC5)n(C)c4)n(C)c3)n(C)c2)cc1", "MIC": "> 32"},
      {"smiles": "Cn1cc(NC(=O)c2cc(NC(=O)c3cc(NC(=O)c4cccn4C)cn3C)cn2C)cc1C(=O)NCCN1CCOCC1", "MIC": "> 32"},
      {"smiles": "Cn1cc(NC(=O)c2cc(NC(=O)c3cc(NC(=O)c4ccc(OC(F)F)cc4)cn3C)cn2C)cc1C(=O)NCCN1CCOCC1", "MIC": 4},
      {"smiles": "Cn1cc(NC(=O)c2cc(NC(=O)c3cc(NC(=O)c4sc5cc(Cl)sc5c4Cl)cn3C)cn2C)cc1C(=O)NCCN1CCOCC1", "MIC": 16},
      {"smiles": "Cn1cc(NC(=O)c2cc(NC(=O)c3cc(NC(=O)c4cn5ccccc5n4)cn3C)cn2C)cc1C(=O)NCCN1CCOCC1", "MIC": 2},
      {"smiles": "Cn1cc(NC(=O)c2cc(NC(=O)c3cc(NC(=O)c4sc(-c5ccccc5)cc4Cl)cn3C)cn2C)cc1C(=O)NCCN1CCOCC1", "MIC": "> 32"},
      {"smiles": "Cn1cc(NC(=O)c2cc(NC(=O)c3cc(NC(=O)c4ccc5cccnc5n4)cn3C)cn2C)cc1C(=O)NCCN1CCOCC1", "MIC": "> 32"},
      {"smiles": "Cn1cc(NC(=O)c2cc(NC(=O)c3cc(NC(=O)c4cc5ccccc5n4C)cn3C)cn2C)cc1C(=O)NCCN1CCOCC1", "MIC": 32},
      {"smiles": "Cn1cc(NC(=O)c2cc(NC(=O)c3cc(NC(=O)c4cccnc4)cn3C)cn2C)cc1C(=O)NCCN1CCOCC1", "MIC": "> 32"},
      {"smiles": "Cc1nc2ccncc2cc1C(=O)Nc1cc(C(=O)Nc2cc(C(=O)Nc3cc(C(=O)NCCN4CCOCC4)n(C)c3)n(C)c2)n(C)c1", "MIC": "> 32"},
      {"smiles": "Cn1cc(NC(=O)c2cc(NC(=O)c3cc(NC(=O)c4ccc5c(c4)OCO5)cn3C)cn2C)cc1C(=O)NCCN1CCOCC1", "MIC": 16},
      {"smiles": "Cn1cc(NC(=O)c2cc(NC(=O)c3cc(NC(=O)c4cc5ccccc5s4)cn3C)cn2C)cc1C(=O)NCCN1CCOCC1", "MIC": 32},
      {"smiles": "Cn1cc(NC(=O)c2cc(NC(=O)c3cc(NC(=O)c4cc5cccc(Cl)c5s4)cn3C)cn2C)cc1C(=O)NCCN1CCOCC1", "MIC": "> 32"},
      {"smiles": "Cn1cc(NC(=O)c2cc(NC(=O)c3cc(NC(=O)c4cccs4)cn3C)cn2C)cc1C(=O)NCCN1CCOCC1", "MIC": 16},
      {"smiles": "Cn1cc(NC(=O)c2cc(NC(=O)c3cc(NC(=O)c4ccccn4)cn3C)cn2C)cc1C(=O)NCCN1CCOCC1", "MIC": "> 32"},
      {"smiles": "Cn1cc(NC(=O)c2cc(NC(=O)c3cc(NC(=O)c4ccoc4)cn3C)cn2C)cc1C(=O)NCCN1CCOCC1", "MIC": "> 32"},
      {"smiles": "Cn1cc(NC(=O)c2cc(NC(=O)c3cc(NC(=O)c4ccc5ccccc5n4)cn3C)cn2C)cc1C(=O)NCCN1CCOCC1", "MIC": 32},
      {"smiles": "Cn1cc(NC(=O)c2cc(NC(=O)c3cc(NC(=O)c4ccc(OC(F)(F)F)cc4)cn3C)cn2C)cc1C(=O)NCCN1CCOCC1", "MIC": "> 32"},
      {"smiles": "Cn1cc(NC(=O)c2cc(NC(=O)c3cc(NC(=O)c4nsc5ccccc45)cn3C)cn2C)cc1C(=O)NCCN1CCOCC1", "MIC": 1},
      {"smiles": "Cn1cc(NC(=O)c2cc(NC(=O)c3cc(NC(=O)c4ccc5cnccc5n4)cn3C)cn2C)cc1C(=O)NCCN1CCOCC1", "MIC": 4},
      {"smiles": "Cn1cc(NC(=O)c2cc(NC(=O)c3cc(NC(=O)c4csc(-c5cccnc5)n4)cn3C)cn2C)cc1C(=O)NCCN1CCOCC1", "MIC": "> 32"},
      {"smiles": "COc1cc(Cl)ccc1C(=O)Nc1cc(C(=O)Nc2cc(C(=O)Nc3cc(C(=O)NCCN4CCOCC4)n(C)c3)n(C)c2)n(C)c1", "MIC": 8},
      {"smiles": "Cn1cc(NC(=O)c2cc(NC(=O)c3cc(NC(=O)c4cnc5ccccc5n4)cn3C)cn2C)cc1C(=O)NCCN1CCOCC1", "MIC": "> 32"},
      {"smiles": "Cn1cc(NC(=O)c2cc(NC(=O)c3cc(NC(=O)c4cn5cccnc5n4)cn3C)cn2C)cc1C(=O)NCCN1CCOCC1", "MIC": 8},
      {"smiles": "Cn1cc(NC(=O)c2cc(NC(=O)c3cc(NC(=O)c4ccccc4)cn3C)cn2C)cc1C(=O)NCCN1CCOCC1", "MIC": 32},
      {"smiles": "Cn1cc(NC(=O)c2cc(NC(=O)c3cc(NC(=O)c4cc5ccccc5oc4=O)cn3C)cn2C)cc1C(=O)NCCN1CCOCC1", "MIC": 16},
      {"smiles": "Cn1cc(NC(=O)c2cc(NC(=O)c3cc(NC(=O)c4sc5cc(Cl)ccc5c4Cl)cn3C)cn2C)cc1C(=O)NCCN1CCOCC1", "MIC": 32}
    ]}
  ]
}
